Assay results reported in ChEMBL document CHEMBL1134430, “Synthesis and biological activity of novel macrocyclic antifungals: acylated conjugates of the ornithine moiety of the lipopeptidolactone FR901469” (2001).
In brackets after ≈: the same amount, converted by molar mass.

Experiments:
Type in all cases: functional
Mus musculus [1] = species: Mus musculus; experiment: Hemolytic ability to hemolyze ICR mouse RBCs in microtiter red blood cell hemolysis assay; parameters: concentration or dose not given beside the values
[2] = test system: Meyerozyma guilliermondii; experiment: Minimum inhibitory concentration against Candida guilliermondii FP587 strain
Candida albicans [3] = experiment: Minimum inhibitory concentration against Candida albicans FP579 strain
Candida tropicalis [4] = experiment: Minimum inhibitory concentration against Candida tropicalis 8002 strain
Candida tropicalis [5] = experiment: Minimum inhibitory concentration against Candida tropicalis 8001 strain
Candida parapsilosis = experiment: Minimum inhibitory concentration against Candida parapsilosis 15001 strain; settings: Lodderomyces parapsilosis
Candida albicans [6] = experiment: Minimum inhibitory concentration against Candida albicans FP633 strain
Mus musculus [7] = experiment: In vivo activity in Disseminated Murine Candidiasis Model
Aspergillus fumigatus = experiment: In vitro minimum inhibitory concentration against Aspergillus fumigatus TIMM0063 FPI305 was determined by the broth microdilution method.
Mus musculus [8] = experiment: (§1) Ratio of In vivo activity of drug in Disseminated Murine Candidiasis Model to that of In vivo activity of FR-901469 in Disseminated Murine Candidiasis Model
[9] = as §1

Row | Structure (SMILES) | Hemolysis (Mus musculus [1]) [%] | MIC [2] [µg/mL] | MIC (Candida albicans [3]) [µg/mL] | MIC (Candida tropicalis [4]) [µg/mL] | MIC (Candida tropicalis [5]) [µg/mL] | MIC (Candida parapsilosis) [µg/mL] | MIC (Candida albicans [6]) [µg/mL] | ED50 (Mus musculus [7]) [mg/kg] | MIC (Aspergillus fumigatus) [µg/mL] | Ratio (Mus musculus [8]) | Ratio [9]
1 | CCCCCCCCCCCCC[C@@H]1CC(=O)N[C@H]([C@@H](C)O)C(=O)N[C@H](C)C(=O)N[C@@H](Cc2ccc(O)cc2)C(=O)N[C@@H](C(C)C)C(=O)N2C[C@H](O)C[C@H]2C(=O)N[C@H]([C@@H](C)O)C(=O)N[C@@H]([C@@H](C)O)C(=O)N2CC[C@H](O)[C@H]2C(=O)N[C@@H]([C@H](O)CC(N)=O)C(=O)NCC(=O)N[C@H]([C@@H](C)O)C(=O)N[C@@H](CCCNC(=O)CCCCCN)C(=O)O1.Cl | 14 | 0.78 | 0.78 | 0.78 | 0.78 | 0.39 | 0.39 | – | – | – | –
2 | CCCCCCCCCCCCC[C@@H]1CC(=O)N[C@H]([C@@H](C)O)C(=O)N[C@H](C)C(=O)N[C@@H](Cc2ccc(O)cc2)C(=O)N[C@@H](C(C)C)C(=O)N2C[C@H](O)C[C@H]2C(=O)N[C@H]([C@@H](C)O)C(=O)N[C@@H]([C@@H](C)O)C(=O)N2CC[C@H](O)[C@H]2C(=O)N[C@@H]([C@H](O)CC(N)=O)C(=O)NCC(=O)N[C@H]([C@@H](C)O)C(=O)N[C@@H](CCCN)C(=O)O1.Cl | 100 | 0.39 | 0.39 | 0.39 | 0.39 | 0.39 | 0.39 | 0.44 | 0.5 | – | –
3 | CCCCCCCCCCCCC[C@@H]1CC(=O)N[C@H]([C@@H](C)O)C(=O)N[C@H](C)C(=O)N[C@@H](Cc2ccc(O)cc2)C(=O)N[C@@H](C(C)C)C(=O)N2C[C@H](O)C[C@H]2C(=O)N[C@H]([C@@H](C)O)C(=O)N[C@@H]([C@@H](C)O)C(=O)N2CC[C@H](O)[C@H]2C(=O)N[C@@H]([C@H](O)CC(N)=O)C(=O)NCC(=O)N[C@H]([C@@H](C)O)C(=O)N[C@@H](CCCNC(=O)CCN)C(=O)O1.Cl | 44 | 0.39 | 0.39 | 0.78 | 0.78 | 0.39 | 0.39 | – | – | – | –
4 | C[C@@H]1[C@H](O)[C@@H](C)/C=C/C=C/C=C/C=C/C=C/C=C/C=C/[C@H](O[C@@H]2O[C@H](C)[C@@H](O)[C@H](N)[C@@H]2O)C[C@@H]2O[C@](O)(C[C@@H](O)C[C@@H](O)[C@H](O)CC[C@@H](O)C[C@@H](O)CC(=O)O[C@H]1C)C[C@H](O)[C@H]2C(=O)O [AMPHOTERICIN B] | – | – | – | – | – | – | – | 0.132 | – | – | –
5 | OC(Cn1cncn1)(Cn1cncn1)c1ccc(F)cc1F [FLUCONAZOLE] | – | – | – | – | – | – | – | > 20 | – | – | –
6 | CCCCCCCCCCCCC[C@@H]1CC(=O)N[C@H]([C@@H](C)O)C(=O)N[C@H](C)C(=O)N[C@@H](Cc2ccc(O)cc2)C(=O)N[C@@H](C(C)C)C(=O)N2C[C@H](O)C[C@H]2C(=O)N[C@H]([C@@H](C)O)C(=O)N[C@@H]([C@@H](C)O)C(=O)N2CC[C@H](O)[C@H]2C(=O)N[C@@H]([C@H](O)CC(N)=O)C(=O)NCC(=O)N[C@H]([C@@H](C)O)C(=O)N[C@@H](CCCNC(=O)[C@@H]2CCN2)C(=O)O1.Cl | 27 | 0.78 | 0.78 | 0.39 | 0.39 | 0.78 | 0.39 | – | – | – | –
7 | CCCCCCCCCCCCC[C@@H]1CC(=O)N[C@H]([C@@H](C)O)C(=O)N[C@H](C)C(=O)N[C@@H](Cc2ccc(O)cc2)C(=O)N[C@@H](C(C)C)C(=O)N2C[C@H](O)C[C@H]2C(=O)N[C@H]([C@@H](C)O)C(=O)N[C@@H]([C@@H](C)O)C(=O)N2CC[C@H](O)[C@H]2C(=O)N[C@@H]([C@H](O)CC(N)=O)C(=O)NCC(=O)N[C@H]([C@@H](C)O)C(=O)N[C@@H](CCCNC(=O)CCCCN)C(=O)O1.Cl | 20 | 0.39 | 0.78 | 0.78 | 0.78 | 0.39 | 0.39 | – | – | – | –
8 | CCCCCCCCCCCCC[C@@H]1CC(=O)N[C@H]([C@@H](C)O)C(=O)N[C@H](C)C(=O)N[C@@H](Cc2ccc(O)cc2)C(=O)N[C@@H](C(C)C)C(=O)N2C[C@H](O)C[C@H]2C(=O)N[C@H]([C@@H](C)O)C(=O)N[C@@H]([C@@H](C)O)C(=O)N2CC[C@H](O)[C@H]2C(=O)N[C@@H]([C@H](O)CC(N)=O)C(=O)NCC(=O)N[C@H]([C@@H](C)O)C(=O)N[C@@H](CCCNC(C)=O)C(=O)O1 | 5 | 0.78 (≈ 0.495 µM) | 0.78 (≈ 0.495 µM) | 1.56 (≈ 0.99 µM) | 1.56 (≈ 0.99 µM) | 1.56 (≈ 0.99 µM) | 0.39 (≈ 0.247 µM) | 4 | 1 (≈ 0.635 µM) | 6.2 | –
9 | CCCCCCCCCCCCC[C@@H]1CC(=O)N[C@H]([C@@H](C)O)C(=O)N[C@H](C)C(=O)N[C@@H](Cc2ccc(O)cc2)C(=O)N[C@@H](C(C)C)C(=O)N2C[C@H](O)C[C@H]2C(=O)N[C@H]([C@@H](C)O)C(=O)N[C@@H]([C@@H](C)O)C(=O)N2CC[C@H](O)[C@H]2C(=O)N[C@@H]([C@H](O)CC(N)=O)C(=O)NCC(=O)N[C@H]([C@@H](C)O)C(=O)N[C@@H](CCCNC(=O)CNC)C(=O)O1.Cl | 54 | 0.39 | 0.39 | 0.78 | 0.78 | 0.39 | 0.2 | – | – | – | –
10 | CCCCCCCCCCCCC[C@@H]1CC(=O)N[C@H]([C@@H](C)O)C(=O)N[C@H](C)C(=O)N[C@@H](Cc2ccc(O)cc2)C(=O)N[C@@H](C(C)C)C(=O)N2C[C@H](O)C[C@H]2C(=O)N[C@H]([C@@H](C)O)C(=O)N[C@@H]([C@@H](C)O)C(=O)N2CC[C@H](O)[C@H]2C(=O)N[C@@H]([C@H](O)CC(N)=O)C(=O)NCC(=O)N[C@H]([C@@H](C)O)C(=O)N[C@@H](CCCNC(=O)[C@@H](N)CCCN)C(=O)O1.Cl | 20 | 0.39 | 0.78 | 1.56 | 1.56 | 0.39 | 0.39 | 0.54 | 0.5 | – | 0.8
11 | CCCCCCCCCCCCC[C@@H]1CC(=O)N[C@H]([C@@H](C)O)C(=O)N[C@H](C)C(=O)N[C@@H](Cc2ccc(O)cc2)C(=O)N[C@@H](C(C)C)C(=O)N2C[C@H](O)C[C@H]2C(=O)N[C@H]([C@@H](C)O)C(=O)N[C@@H]([C@@H](C)O)C(=O)N2CC[C@H](O)[C@H]2C(=O)N[C@@H]([C@H](O)CC(N)=O)C(=O)NCC(=O)N[C@H]([C@@H](C)O)C(=O)N[C@@H](CCCNC(=O)CCCN)C(=O)O1.Cl | 30 | 0.78 | 1.56 | 0.78 | 1.56 | 0.78 | 0.78 | – | – | – | –
12 | CCCCCCCCCCCCC[C@@H]1CC(=O)N[C@H]([C@@H](C)O)C(=O)N[C@H](C)C(=O)N[C@@H](Cc2ccc(O)cc2)C(=O)N[C@@H](C(C)C)C(=O)N2C[C@H](O)C[C@H]2C(=O)N[C@H]([C@@H](C)O)C(=O)N[C@@H]([C@@H](C)O)C(=O)N2CC[C@H](O)[C@H]2C(=O)N[C@@H]([C@H](O)CC(N)=O)C(=O)NCC(=O)N[C@H]([C@@H](C)O)C(=O)N[C@@H](CCCNC(=O)CN)C(=O)O1.Cl | 67 | 0.78 | 0.78 | 0.78 | 0.78 | 0.78 | 0.39 | – | 0.5 | – | –
13 | CCCCCCCCCCCCC[C@@H]1CC(=O)N[C@H]([C@@H](C)O)C(=O)N[C@H](C)C(=O)N[C@@H](Cc2ccc(O)cc2)C(=O)N[C@@H](C(C)C)C(=O)N2C[C@H](O)C[C@H]2C(=O)N[C@H]([C@@H](C)O)C(=O)N[C@@H]([C@@H](C)O)C(=O)N2CC[C@H](O)[C@H]2C(=O)N[C@@H]([C@H](O)CC(N)=O)C(=O)NCC(=O)N[C@H]([C@@H](C)O)C(=O)N[C@@H](CCCNC(=O)CO)C(=O)O1 | 9 | 0.39 (≈ 0.245 µM) | 0.78 (≈ 0.49 µM) | 0.78 (≈ 0.49 µM) | 1.56 (≈ 0.98 µM) | 0.78 (≈ 0.49 µM) | 0.39 (≈ 0.245 µM) | – | – | – | –
14 | CCCCCCCCCCCCC[C@@H]1CC(=O)N[C@H]([C@@H](C)O)C(=O)N[C@H](C)C(=O)N[C@@H](Cc2ccc(O)cc2)C(=O)N[C@@H](C(C)C)C(=O)N2C[C@H](O)C[C@H]2C(=O)N[C@H]([C@@H](C)O)C(=O)N[C@@H]([C@@H](C)O)C(=O)N2CC[C@H](O)[C@H]2C(=O)N[C@@H]([C@H](O)CC(N)=O)C(=O)NCC(=O)N[C@H]([C@@H](C)O)C(=O)N[C@@H](CCCNC(=O)CN(C)C)C(=O)O1.Cl | 10 | 0.2 | 0.78 | 0.78 | 0.78 | 0.39 | 0.39 | 9.1 | 0.5 | 10.4 | –
